Experimental data: the NIST ThermoML archive (doi:10.1016/j.jct.2016.09.015)
± gives the expanded uncertainty stated by the source.

Legend:
[1] = Molar enthalpy of transition or fusion; details: Crystal; DSC
[2] = Crystal; DTA

**Q.** With C[C@@H]1O[C@@H](OC[C@H]2O[C@@H](Oc3c(-c4ccc(OCCO)c(OCCO)c4)oc4cc(OCCO)cc(O)c4c3=O)[C@H](O)[C@@H](O)[C@@H]2O)[C@H](O)[C@H](O)[C@H]1O [Troxerutin] as the compound, how does the “Molar enthalpy of transition or fusion” value [1] read?
**A.** 7.44 ± 0.526 kcal/mol

**Q.** What about the Normal melting temperature [2] of the same compound?
**A.** 168.68 ± 0.46 °C
